Key:
Test in all cases: radiometric filter-binding kinase assay, Kinase HotSpot
Settings in all cases: compound 0.5 µM; ATP 10 µM
ACVR1B (human) = ACVR1B (human) (UniProt P36896)
ALK (human) = ALK (human) (UniProt Q9UM73)
AURKB (human) = AURKB (human) (UniProt Q96GD4)
AXL (human) = AXL (human) (UniProt P30530)
CAMK1G (human) = CAMK1G (human) (UniProt Q96NX5)
CAMKK2 (human) = CAMKK2 (human) (UniProt Q96RR4)
CDK6 CCND1 (human) = CDK6 CCND1 (human) (UniProt Q00534+P24385)
CDK6 CCND3 (human) = CDK6 CCND3 (human) (UniProt P30281+Q00534)
CDK6 CCND3 (human), sequence (P30281 whole entry, looked up): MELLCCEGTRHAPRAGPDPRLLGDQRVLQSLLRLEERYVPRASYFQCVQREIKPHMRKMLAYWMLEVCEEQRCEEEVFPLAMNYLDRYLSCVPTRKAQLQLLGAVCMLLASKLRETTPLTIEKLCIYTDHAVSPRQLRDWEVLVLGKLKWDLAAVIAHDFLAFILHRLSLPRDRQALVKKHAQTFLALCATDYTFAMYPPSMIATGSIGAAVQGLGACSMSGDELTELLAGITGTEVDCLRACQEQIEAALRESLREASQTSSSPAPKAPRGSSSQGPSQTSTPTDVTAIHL
CDK6 CCND3 (human), sequence (Q00534 whole entry, looked up): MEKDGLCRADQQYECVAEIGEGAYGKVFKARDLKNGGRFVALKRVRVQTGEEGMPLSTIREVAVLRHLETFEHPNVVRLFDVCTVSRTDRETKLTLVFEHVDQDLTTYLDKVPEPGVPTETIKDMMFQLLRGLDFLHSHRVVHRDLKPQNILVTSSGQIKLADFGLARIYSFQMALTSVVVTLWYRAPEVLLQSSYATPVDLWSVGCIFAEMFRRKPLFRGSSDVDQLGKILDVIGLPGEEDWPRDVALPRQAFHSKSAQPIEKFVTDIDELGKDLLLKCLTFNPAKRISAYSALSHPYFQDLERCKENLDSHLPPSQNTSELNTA

CHEK2 (human) = CHEK2 (human) (UniProt O96017)
CHEK2 (human), sequence (O96017 whole entry, looked up): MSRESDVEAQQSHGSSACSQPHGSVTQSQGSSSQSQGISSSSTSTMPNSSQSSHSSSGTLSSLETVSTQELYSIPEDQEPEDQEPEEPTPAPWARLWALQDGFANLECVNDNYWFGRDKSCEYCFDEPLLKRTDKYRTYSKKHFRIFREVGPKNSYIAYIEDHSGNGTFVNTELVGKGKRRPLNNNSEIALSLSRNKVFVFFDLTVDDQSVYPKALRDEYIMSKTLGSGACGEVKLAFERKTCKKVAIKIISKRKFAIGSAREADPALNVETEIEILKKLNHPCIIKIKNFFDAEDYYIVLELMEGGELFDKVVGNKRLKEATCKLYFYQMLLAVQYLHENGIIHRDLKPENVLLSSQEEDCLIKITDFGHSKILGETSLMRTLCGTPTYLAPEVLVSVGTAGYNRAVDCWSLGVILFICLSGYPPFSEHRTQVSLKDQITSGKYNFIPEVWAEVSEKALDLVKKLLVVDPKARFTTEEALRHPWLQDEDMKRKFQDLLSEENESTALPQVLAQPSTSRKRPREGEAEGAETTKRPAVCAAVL

CLK2 (human) = CLK2 (human) (UniProt P49760)
DMPK (human) = DMPK (human) (UniProt Q09013)
DMPK (human), sequence (Q09013 whole entry, looked up): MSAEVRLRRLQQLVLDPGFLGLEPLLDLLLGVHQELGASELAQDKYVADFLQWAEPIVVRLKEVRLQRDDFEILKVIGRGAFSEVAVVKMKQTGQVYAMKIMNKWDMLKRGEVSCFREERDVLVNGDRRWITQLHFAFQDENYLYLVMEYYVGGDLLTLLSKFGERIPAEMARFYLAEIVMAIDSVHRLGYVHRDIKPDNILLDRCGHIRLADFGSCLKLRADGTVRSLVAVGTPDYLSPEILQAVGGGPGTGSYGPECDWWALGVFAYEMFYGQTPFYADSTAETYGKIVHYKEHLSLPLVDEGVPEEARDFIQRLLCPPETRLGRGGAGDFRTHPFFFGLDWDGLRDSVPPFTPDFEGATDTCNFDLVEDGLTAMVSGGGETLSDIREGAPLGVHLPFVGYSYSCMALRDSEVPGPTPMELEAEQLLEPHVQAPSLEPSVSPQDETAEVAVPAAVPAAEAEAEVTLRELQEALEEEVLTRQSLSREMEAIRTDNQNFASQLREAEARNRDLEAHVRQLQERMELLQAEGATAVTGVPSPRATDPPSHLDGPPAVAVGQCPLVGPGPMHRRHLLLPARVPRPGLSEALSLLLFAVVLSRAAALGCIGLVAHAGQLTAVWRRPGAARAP

DYRK1B (human) = DYRK1B (human) (UniProt Q9Y463)
DYRK4 (human) = DYRK4 (human) (UniProt Q9NR20)
EGFR (human) = EGFR (human) (UniProt P00533)
EPHA4 (human) = EPHA4 (human) (UniProt P54764)
HCK (human) = HCK (human) (UniProt P08631)
HCK (human), sequence (P08631 whole entry, looked up): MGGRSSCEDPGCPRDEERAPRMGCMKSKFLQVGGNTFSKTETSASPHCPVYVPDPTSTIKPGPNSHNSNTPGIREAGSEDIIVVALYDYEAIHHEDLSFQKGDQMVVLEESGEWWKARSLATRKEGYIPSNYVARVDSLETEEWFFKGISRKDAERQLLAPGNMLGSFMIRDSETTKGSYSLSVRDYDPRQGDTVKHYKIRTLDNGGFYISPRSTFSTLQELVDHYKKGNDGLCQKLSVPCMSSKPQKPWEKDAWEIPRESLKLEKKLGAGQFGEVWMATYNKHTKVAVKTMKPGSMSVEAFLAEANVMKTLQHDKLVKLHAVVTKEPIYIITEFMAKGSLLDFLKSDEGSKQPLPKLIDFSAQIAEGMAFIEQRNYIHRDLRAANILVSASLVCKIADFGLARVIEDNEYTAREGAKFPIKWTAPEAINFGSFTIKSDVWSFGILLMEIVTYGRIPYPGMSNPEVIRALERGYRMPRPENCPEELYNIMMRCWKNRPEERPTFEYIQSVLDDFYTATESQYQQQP

IKBKE (human) = IKBKE (human) (UniProt Q14164)
LCK (human) = LCK (human) (UniProt P06239)
LRRK2 (human) = LRRK2 (human) (UniProt Q5S007)
MAPKAPK3 (human) = MAPKAPK3 (human) (UniProt Q16644)
MAPKAPK3 (human), sequence (Q16644 whole entry, looked up): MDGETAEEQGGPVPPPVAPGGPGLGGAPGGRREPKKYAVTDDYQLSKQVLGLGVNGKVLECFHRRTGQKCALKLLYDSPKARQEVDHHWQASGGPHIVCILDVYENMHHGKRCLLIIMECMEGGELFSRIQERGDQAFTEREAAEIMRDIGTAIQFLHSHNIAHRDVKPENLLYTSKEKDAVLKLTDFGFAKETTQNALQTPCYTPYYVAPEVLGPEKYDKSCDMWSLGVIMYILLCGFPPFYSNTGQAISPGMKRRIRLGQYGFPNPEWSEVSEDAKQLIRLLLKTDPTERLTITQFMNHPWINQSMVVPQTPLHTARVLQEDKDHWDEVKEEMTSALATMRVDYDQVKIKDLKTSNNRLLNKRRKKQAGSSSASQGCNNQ

MST1R (human) = MST1R (human) (UniProt Q04912)
MYLK2 (human) = MYLK2 (human) (UniProt Q9H1R3)
NEK4 (human) = NEK4 (human) (UniProt P51957)
PAK1 (human) = PAK1 (human) (UniProt Q13153)
PAK1 (human), sequence (Q13153 whole entry, looked up): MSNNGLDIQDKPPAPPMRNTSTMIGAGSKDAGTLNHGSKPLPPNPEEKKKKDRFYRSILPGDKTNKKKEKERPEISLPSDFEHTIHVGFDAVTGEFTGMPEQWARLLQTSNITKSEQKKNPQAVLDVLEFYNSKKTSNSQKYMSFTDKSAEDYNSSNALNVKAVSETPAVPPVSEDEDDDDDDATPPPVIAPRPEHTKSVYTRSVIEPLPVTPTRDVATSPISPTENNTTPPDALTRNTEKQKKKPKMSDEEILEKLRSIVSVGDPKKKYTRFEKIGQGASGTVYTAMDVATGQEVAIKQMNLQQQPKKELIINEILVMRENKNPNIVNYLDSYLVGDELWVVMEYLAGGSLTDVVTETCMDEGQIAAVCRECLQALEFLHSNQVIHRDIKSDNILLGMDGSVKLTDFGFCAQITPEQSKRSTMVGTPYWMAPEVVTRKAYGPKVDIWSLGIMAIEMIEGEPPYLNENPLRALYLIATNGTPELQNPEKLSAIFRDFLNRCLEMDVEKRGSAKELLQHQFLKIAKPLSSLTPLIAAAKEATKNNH

PAK7 (human) = PAK7 (human) (UniProt Q9P286)
PDPK1 (human) = PDPK1 (human) (UniProt O15530)
PHKG1 (human) = PHKG1 (human) (UniProt Q16816)
PLK2 (human) = PLK2 (human) (UniProt Q9NYY3)
PLK2 (human), sequence (Q9NYY3 whole entry, looked up): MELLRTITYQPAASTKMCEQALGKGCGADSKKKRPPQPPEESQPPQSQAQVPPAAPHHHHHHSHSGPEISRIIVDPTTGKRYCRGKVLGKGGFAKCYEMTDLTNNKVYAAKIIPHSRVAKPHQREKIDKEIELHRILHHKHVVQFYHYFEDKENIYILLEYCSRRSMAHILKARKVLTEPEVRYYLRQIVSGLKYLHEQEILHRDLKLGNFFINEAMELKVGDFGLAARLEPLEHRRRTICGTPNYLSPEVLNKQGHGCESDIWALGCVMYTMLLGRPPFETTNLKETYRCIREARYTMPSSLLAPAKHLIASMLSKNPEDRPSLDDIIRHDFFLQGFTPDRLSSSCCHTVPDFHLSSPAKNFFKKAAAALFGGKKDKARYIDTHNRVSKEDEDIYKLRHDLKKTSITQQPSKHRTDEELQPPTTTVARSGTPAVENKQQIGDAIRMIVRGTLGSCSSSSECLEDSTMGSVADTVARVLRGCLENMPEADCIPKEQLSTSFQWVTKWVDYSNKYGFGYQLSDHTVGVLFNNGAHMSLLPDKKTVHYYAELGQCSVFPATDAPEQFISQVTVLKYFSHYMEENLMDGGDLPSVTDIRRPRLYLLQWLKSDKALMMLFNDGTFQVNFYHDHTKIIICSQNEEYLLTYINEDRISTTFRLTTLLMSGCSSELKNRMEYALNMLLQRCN

PLK3 (human) = PLK3 (human) (UniProt Q9H4B4)
PNCK (human) = PNCK (human) (UniProt Q6P2M8)
SIK2 (human) = SIK2 (human) (UniProt Q9H0K1)
SRPK3 (human) = SRPK3 (human) (UniProt Q9UPE1)
STK33 (human) = STK33 (human) (UniProt Q9BYT3)
TAOK2 (human) = TAOK2 (human) (UniProt Q9UL54)
TXK (human) = TXK (human) (UniProt P42681)
TXK (human), sequence (P42681 whole entry, looked up): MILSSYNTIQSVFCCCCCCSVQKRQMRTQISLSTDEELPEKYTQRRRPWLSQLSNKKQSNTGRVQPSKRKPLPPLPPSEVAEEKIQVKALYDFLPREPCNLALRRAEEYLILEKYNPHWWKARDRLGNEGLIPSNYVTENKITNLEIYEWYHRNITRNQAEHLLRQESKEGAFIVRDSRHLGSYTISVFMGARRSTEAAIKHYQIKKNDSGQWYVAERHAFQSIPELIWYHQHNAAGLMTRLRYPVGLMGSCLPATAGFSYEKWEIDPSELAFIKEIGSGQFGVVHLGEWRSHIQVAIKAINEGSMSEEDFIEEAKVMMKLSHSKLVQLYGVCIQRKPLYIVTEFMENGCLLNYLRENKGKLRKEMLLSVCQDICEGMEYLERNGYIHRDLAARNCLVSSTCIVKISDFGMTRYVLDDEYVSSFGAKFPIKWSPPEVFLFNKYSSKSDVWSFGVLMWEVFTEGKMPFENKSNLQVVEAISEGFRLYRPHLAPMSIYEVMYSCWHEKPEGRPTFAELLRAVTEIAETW

BRAF (human) = BRAF (human) (UniProt P15056)

CAMK1G (human), sequence (Q96NX5 whole entry, looked up): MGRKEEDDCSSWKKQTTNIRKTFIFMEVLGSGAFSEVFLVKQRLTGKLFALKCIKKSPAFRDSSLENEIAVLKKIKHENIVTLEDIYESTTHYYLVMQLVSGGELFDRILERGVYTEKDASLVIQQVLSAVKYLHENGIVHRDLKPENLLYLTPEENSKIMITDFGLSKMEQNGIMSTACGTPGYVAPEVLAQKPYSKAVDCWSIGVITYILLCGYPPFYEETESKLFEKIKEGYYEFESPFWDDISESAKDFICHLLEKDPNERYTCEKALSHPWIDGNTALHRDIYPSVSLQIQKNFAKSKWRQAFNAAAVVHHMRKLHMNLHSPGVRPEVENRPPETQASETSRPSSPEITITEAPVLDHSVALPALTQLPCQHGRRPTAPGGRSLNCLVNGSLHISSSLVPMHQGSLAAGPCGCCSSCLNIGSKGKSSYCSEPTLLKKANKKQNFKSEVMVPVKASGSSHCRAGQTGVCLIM

Compound | residual activity (ALK (human)) [%] | residual activity (AURKB (human)) [%] | residual activity (AXL (human)) [%] | residual activity (CAMK1G (human)) [%] | residual activity (CAMKK2 (human)) [%] | residual activity (CDK6 CCND1 (human)) [%] | residual activity (CDK6 CCND3 (human)) [%] | residual activity (CHEK2 (human)) [%] | residual activity (CLK2 (human)) [%] | residual activity (DMPK (human)) [%] | residual activity (DYRK1B (human)) [%] | residual activity (DYRK4 (human)) [%] | residual activity (HCK (human)) [%] | residual activity (IKBKE (human)) [%] | residual activity (LCK (human)) [%] | residual activity (LRRK2 (human)) [%] | residual activity (MAPKAPK3 (human)) [%] | residual activity (MST1R (human)) [%] | residual activity (MYLK2 (human)) [%] | residual activity (NEK4 (human)) [%] | other results
O=C(c1ccccc1)c1ccc(N2CCOCC2)cc1O | 102 | 95.5 | 95.1 | 96.1 | 111 | 97.8 | 97.7 | 106 | 106 | 98.9 | 105 | 94.9 | 114 | 101 | 101 | 95.4 | 106 | 106 | 99.1 | 97.7 | residual activity (ACVR1B (human)): 104%; residual activity (EGFR (human)): 94.9%; residual activity (EPHA4 (human)): 103%; residual activity (PAK1 (human)): 91.8%; residual activity (PAK7 (human)): 99.2%; residual activity (PDPK1 (human)): 101%; residual activity (PHKG1 (human)): 97.4%; residual activity (PLK2 (human)): 111%; residual activity (PLK3 (human)): 99.1%; residual activity (PNCK (human)): 101%; residual activity (SIK2 (human)): 100%; residual activity (SRPK3 (human)): 103%; residual activity (STK33 (human)): 108%; residual activity (TAOK2 (human)): 107%; residual activity (TXK (human)): 98.5%
c1ccc(-c2cnc(Nc3ccc(OCCN4CCCC4)cc3)s2)cc1 | 97 | 75.8 | 97.1 | 101 | 89.4 | 40.3 | 20.1 | 99.4 | 102 | 110 | 95.4 | 99.4 | 98.6 | 81.6 | 48.6 | 95.8 | 97.6 | 107 | 28.7 | 96.1 | residual activity (ACVR1B (human)): 101%; residual activity (EGFR (human)): 98.3%; residual activity (EPHA4 (human)): 101%; residual activity (PAK1 (human)): 97%; residual activity (PAK7 (human)): 87.2%; residual activity (PDPK1 (human)): 84.9%; residual activity (PHKG1 (human)): 45.5%; residual activity (PLK2 (human)): 105%; residual activity (PLK3 (human)): 98%; residual activity (PNCK (human)): 99.8%; residual activity (SIK2 (human)): 45.6%; residual activity (SRPK3 (human)): 98.2%; residual activity (STK33 (human)): 91%; residual activity (TAOK2 (human)): 70.7%; residual activity (TXK (human)): 91.1%
O=C1NC(=O)c2c1c1c3ccccc3[nH]c1c1[nH]c3cc(Br)ccc3c21 | 94 | 44.3 | 82.9 | 94.5 | 48.1 | 12.2 | 40.2 | 37.5 | 84.7 | 104 | 82.8 | 86 | 92.4 | 83.4 | 88.9 | 49.8 | 118 | 101 | 43.3 | 89 | residual activity (ACVR1B (human)): 101%; residual activity (EGFR (human)): 100%; residual activity (EPHA4 (human)): 91.3%; residual activity (PAK1 (human)): 87.8%; residual activity (PAK7 (human)): 96.7%; residual activity (PDPK1 (human)): 66.1%; residual activity (PHKG1 (human)): 40.7%; residual activity (PLK2 (human)): 93.7%; residual activity (PLK3 (human)): 93.3%; residual activity (PNCK (human)): 99.4%; residual activity (SIK2 (human)): 80.4%; residual activity (SRPK3 (human)): 89.2%; residual activity (STK33 (human)): 71.9%; residual activity (TAOK2 (human)): 94.1%; residual activity (TXK (human)): 90.3%
N/C(=N\N=C/c1ccc(-c2cccc([N+](=O)[O-])c2)o1)N[N+](=O)[O-] | 93.6 | 99.1 | 100 | 104 | 114 | 100 | 94.7 | 104 | 88.3 | 102 | 104 | 92.7 | 114 | 101 | 98.6 | 91 | 95.4 | 97.6 | 100 | 103 | residual activity (ACVR1B (human)): 101%; residual activity (EGFR (human)): 100%; residual activity (PAK1 (human)): 91.4%; residual activity (PAK7 (human)): 97%; residual activity (PDPK1 (human)): 94.6%; residual activity (PHKG1 (human)): 101%; residual activity (PLK2 (human)): 107%; residual activity (PLK3 (human)): 96.8%; residual activity (PNCK (human)): 100%; residual activity (SIK2 (human)): 91.6%; residual activity (SRPK3 (human)): 100%; residual activity (STK33 (human)): 102%; residual activity (TAOK2 (human)): 95.3%; residual activity (TXK (human)): 98.3%
O=S(=O)(NCCNC/C=C/c1ccc(Br)cc1)c1cccc2cnccc12 | 101 | 97.8 | 112 | 99.1 | 95.6 | 77.9 | 96.6 | 82.8 | 106 | 96.6 | 95.3 | 96.4 | 99.4 | 92.3 | 103 | 86.2 | 97.8 | 97.4 | 96.5 | 96.9 | residual activity (BRAF (human)): 99.8%; residual activity (EPHA4 (human)): 86.8%; residual activity (PAK1 (human)): 90.2%; residual activity (PAK7 (human)): 91.4%; residual activity (PDPK1 (human)): 94.1%; residual activity (PHKG1 (human)): 91.6%; residual activity (PLK3 (human)): 98.2%; residual activity (PNCK (human)): 100%; residual activity (SIK2 (human)): 95%; residual activity (SRPK3 (human)): 98%; residual activity (STK33 (human)): 79.5%; residual activity (TAOK2 (human)): 90.7%; residual activity (TXK (human)): 86.8%
CCCCc1c(-c2ccc(O)cc2)[nH]c2nccnc12 | 85 | 66.9 | 103 | 104 | 91.7 | 61.6 | 84.6 | 61.1 | 76.4 | 91.8 | 73.3 | 99.7 | 91.1 | 88.3 | 86.8 | 80 | 92.8 | 101 | 95.7 | 82.2 | residual activity (ACVR1B (human)): 117%; residual activity (BRAF (human)): 99.3%; residual activity (EPHA4 (human)): 87.5%; residual activity (PAK1 (human)): 81.4%; residual activity (PAK7 (human)): 82.9%; residual activity (PDPK1 (human)): 95.9%; residual activity (PHKG1 (human)): 86.7%; residual activity (PLK2 (human)): 83.9%; residual activity (PLK3 (human)): 90.6%; residual activity (PNCK (human)): 109%; residual activity (SIK2 (human)): 95.9%; residual activity (SRPK3 (human)): 98.6%; residual activity (STK33 (human)): 80.8%; residual activity (TAOK2 (human)): 62.7%; residual activity (TXK (human)): 65%
